Here are results for five compounds from patent publication US20150330990A1, “METHOD OF SCREENING CANDIDATE BIOCHEMICAL ENTITIES TARGETING A TARGET BIOCHEMICAL ENTITY” (BIODESY, INC., priority 2013, published 2015).

One may read the EC50 as the concentration needed to bring the measured effect to its halfway point.

For assay [1], the target named is T1, alpha-synuclein (Homo sapiens, UniProt P37840). Conditions: cited from earlier work.
For assay [2], the target named is T1, alpha-synuclein. Put plainly: Thioflavin T assay / fibrillization of alpha-synuclein in vitro. The class given is biochemical.
For assay [3], the target named is T2, alpha-synuclein (Homo sapiens, UniProt P37840, A90C). Put plainly: SHG conformational change assay, compound added alone. The class given is binding. Also on record: made in house. Conditions: for EC50: 5 μM alpha-synuclein, GraphPad non-linear fit, read-out: EC50 (SHG dose-response curve; binding affinity). The source says: A single-site cysteine mutant […]) of the alpha-synuclein was constructed and labeled with PyMPO-maleimide (Invitrogen), an SH-active probe that we have used in previous studies ([…], Journal of Chemical Physics 125(7), 2006; […], Physical Chemistry Chemical Physics 9(42):5704-5711, 2007). Mutant […]) protein was previously determined to function like wild-type (Bertoncini C W, et al., Proceedings of the National Academy of Sciences of the United States of America 102(5):1430-1435, 2005). The label was coupled to the protein according to the manufacturer's instructions and purified by gel filtration. Artemis SHG Screening Instrumentation: The Artemis instrument is comprised of a mode-locked Ti:sapphire oscillator that provides the fundamental beam necessary to generate second-harmonic light (high peak power intensity). […] Each of the 16 wells is read in sequence by translating the stage via the control software. Artemis was outfitted with a single-channel liquid injector (Cavro) which delivered a liquid bolus. The liquid bolus volume and delivery speed could be varied. In the experiments described here, we used a volume of 10 μl delivered in 1 second. The measured parameters include the read time before and after ligand injection, integration time, stage temperature (kept at room temperature for all experiments here), and the stage position, relative to the line of the fundamental beam. A custom silicone template with adhesive backing (Arrowleaf Research) was applied to commercially available Xenobind glass microscope slides (Xenopore) using a custom machined assembly jig to define 16 wells of diameter 3 mm (volume 15 μl) on each slide. The template defining the wells is registered to a standard 96-well plate. […] After allowing the protein to absorb, the slide was placed on the […] platform and each well was scanned via SHG to determine the amount of protein in each well. Unbound protein was then removed by washing five times with 20 μL PBS. A post-wash well scan was then performed to determine how much protein was bound to the slide surface. To determine the dose-response curves of Spermine (Sigma), Spermidine (Sigma), and COMPOUND A, serial dilutions of each compound were used to prepare stock solutions. Each compound was added to a well to produce the indicated final concentration. […] For COMPOUND A the concentration range was 5 μ[…], and 1 mM. The concentrations were then converted to the log scale and the data plotted in GraphPad Prism V5 using the non-linear regression fit for log(agonist) vs response with variable slope. […] The EC50 values were calculated by the software. Control experiments were performed on each compound to empirically determine the time frame required for each compound to produce a maximal response (Tmax). […] The resulting value was reported as the percent change in SHG intensity due to compound addition.

For assay [4], the target named is T2, alpha-synuclein. Particulars: 1 mM Dopamine, 50 mM Hepes pH 7.4, 100 mM NaCl.
Description: An alanine to cysteine mutation (A90C) was introduced into alpha-synuclein to produce a site-specific peptide for dye conjugation, as native alpha-synuclein lacks cysteine residues. A90C alpha-synuclein was then labeled with PyMPO-Maleimide using standard techniques and the location of the modified peptide was verified by mass spectroscopy to be cysteine 90.
For SHG experiments performed with alpha-synuclein, a stock solution of PyMPO-Maleimide-labeled A90C alpha-synuclein was diluted to a final concentration of 5 μM in 50 mM Hepes, pH 7.4, 100 mM NaCl. The 5 μM protein solution was then immobilized onto an aldehyde derivatized glass slide by incubating for one hour at room temperature. Control (buffer) and compound injections were performed in 50 mM Hepes, pH 7.4, 100 mM NaCl.
The experiments were performed with an instrument comprising a mode-locked Ti:sapphire oscillator which provides the fundamental beam necessary to generate the second-harmonic signal (high peak power intensity). We used a Mira 900 Ti:Sapphire ultrafast oscillator (Coherent Inc.) pumped by a Millenia V DPSS laser (Spectra-Physics Corp.). The Ti:sapphire oscillator produced ˜0.7 W of fundamental power at 780 nm with pulse duration of ˜150 fs at 80 MHz. […]
Assay [5] deals with T2, alpha-synuclein. Put plainly: SHG competition assays (spermine-spermidine, spermine-COMPOUND A, analog-spermine, library screen). The class given is binding. More on the design: made in house. Particulars: 3 mM Spermidine added after 25 minutes incubation with 1 mM Spermine. As for the experimental part: The Maybridge Ro3 fragment library contains over 1,000 pharmacophoric compounds of 95% purity solubilized at 50 mM in DMSO. For fragment screening experiments, a single compound from the library was diluted in PBS and placed in each well at a final concentration of 1 mM ([…]).
After 25 minutes, 3 mM spermidine was added to each well and the resulting change in SHG intensity was measured.
To calculate the percent change, the SHG intensity as measured just prior to injection (T0) was subtracted from the SHG intensity at Tmax and then divided by T0 according to the following equation: SHG %=(ISHG@Tmax−ISHG@T0)/ISHG@T0.
A control buffer injection was used to determine the threshold for SHG intensity change and was calculated in a similar manner to above. The net SHG intensity change for each compound was then reported by subtracting the buffer threshold value from the SHG intensity value produced by compound addition. The resulting value was reported as the percent change in SHG intensity due to compound addition.
Each well was loaded with 5 μM alpha-synuclein and pre-incubated with one fragment compound from the Maybridge Ro3 library for 30 minutes at 1 mM in assay buffer. […] As shown in FIG. 2C (right trace), addition of 1 mM COMPOUND A to alpha-synuclein changes the SHG baseline signal immediately.

In a further assay the test system is Raf kinase. Put plainly: SHG signature on Raf kinase surface array (Example 4). Conditions: positive direction. The class given is binding. As to the method:
A library comprising 200 distinct compounds and Sorafenib, each with a molecular weight between 400 and 500 g/mol, three aromatic groups, and 2-5 nitrogen atoms, is evaluated for the structure-activity relationship using a surface array comprising more than 200 copies of a Raf kinase. The conformation state of the Raf kinase is measured by […] (SHG) methods described in the present application to establish a baseline in the absence of any compound. Each compound in the library is then contacted with a single copy of the Raf kinase on the array. The conformational state of each copy of the single kinase target is measured by SHG methods. The SHG signature for each compound is determined based on the change in conformational state upon contacting the Raf kinase. Sorafenib has a SHG signature with a 30% shift (i.e. magnitude) in the positive direction. The compounds are grouped, based on their SHG signature and common structural parameters, to generate a structure-activity relationship (SAR) catalog. For example, the 8 compounds that have a signature within 10% in magnitude to that of Sorafenib are cataloged as “molecular weight between 400 and 500 g/mol, three aromatic groups, 2-5 nitrogen atoms, and a signature with +27% to +33% magnitude”. […]

Values joined by “and” are separate entries in the source; they are usually repeats but may differ in a detail not shown here. Equal values may be shown once.

For `NCCCNCCCCNCCCN` [Spermine], the “factor of increase of aggregation rate in vitro” value on alpha-synuclein [1] is given as 10^5. The “increase of the rate of aggregation of alpha-synuclein in vitro” value at alpha-synuclein [2] was “roughly two-fold”. Moreover, on alpha-synuclein [3], the EC50 was 840 µM and 790 µM. For the same compound, at alpha-synuclein [3] (1 mM), the “Compound Only (% Shift/% Change)” value stood at 30.23 ± 3.69%. In addition, the “change in SHG intensity” value at alpha-synuclein [3] (1 mM compound added alone to 5 μM alpha-synuclein) was 25.58±4.33% and 30.23±3.69%. Further, on alpha-synuclein [3] (5 mM compound added alone to 5 μM alpha-synuclein), the “change in the SHG intensity” value was 36.26±4.97% and 37.44±6.40%.

As for `NCCc1ccc(O)c(O)c1` [Dopamine], the “average percent change in the SHG intensity of alpha-synuclein” value on alpha-synuclein [4] was determined as 3.375±1.13%.

Consider Phthalocyanine Tetrasulfonate [PcTs], for which the “change in the SHG intensity of alpha-synuclein” value at alpha-synuclein [3] (treatment with 10 μM PcTS) was −79.6±2.7%.

On to `NCCCCNCCCN` [Spermidine], for which the “change in SHG intensity” value at alpha-synuclein [5] was 5.1±0.81%. At alpha-synuclein [3], the EC50 was found to be 1110 µM. Besides, on alpha-synuclein [3] (3 mM compound added alone), the “increase in SHG intensity” value came to 19.88±2.37%. For the same compound, the logEC50 on alpha-synuclein [3] (SHG dose-response curve) is reported as −2.95±0.19.

Consider `CNC(=O)c1cc(Oc2ccc(NC(=O)Nc3ccc(Cl)c(C(F)(F)F)c3)cc2)ccn1` [Sorafenib], for which the “SHG signature shift (magnitude)” value in the assay on Raf kinase is given as 30%.
